Results: patent US4021557A, “11-Aminoalkyl-pyridobenzodiazepinones and salts thereof” (Boehringer Ingelheim GmbH, priority 1974, dated 1977)

Key:
[1] = tested on: acetylcholine-induced bronchospasm; experiment: Antagonism to acetylcholine-provoked bronchospasm in anesthetized guinea pigs (Konzett and Rossler), i.v.; antiasthmatic / bronchospasmolytic activity; format: in vivo; conditions: guinea pig; for ED50: Cavia porcellus, iv, 20γ acetylcholine per kg i.v., graphic extrapolation, read-out: Bronchospasmolytic ED50 against acetylcholine-induced bronchospasm
Procedure: The antiasthmatic activity was tested as the antagonism to bronchospasm provoked by intravenous administration of 20γ of acetylcholine per kg body weight in anesthetized guinea pigs (according to method of Konzett and Rossler). From the average percentage decrease of the bronchospasm produced by administering various doses of the compounds of the […] invention an ED50 was determined by graphic extrapolation. The compounds were administered intravenously.

[2] = tested on: quantity of secretion; experiment: Expectorant (secretolytic) activity in anesthetized guinea pigs (Perry et al, modified by Engelhorn et al), oral; format: in vivo; conditions: guinea pig, over 2 hours
Procedure: The expectorant activity was ascertained by the method of Perry et al, J. Pharmcol. exp. Therap. 73, 65 (1941), as modified by Engelhorn et al, Arzneim. Forsch. 21, 1045 (1971), on male guinea pigs (body weight from 450 to 550 gm), which has been anesthetized by intraperitoneal injection of a 25% urethane solution (1.0 gm/kg). The test compound was administered orally at the indicated dosage levels, each in 2 ml of distilled water, by means of an esophageal tube. 5 tests per dose. The increase in secretion was calculated from the quantity of fluid secreted over a period of 2 hours after administration of the test compound, as compared to the quantity secreted without administration of the test compound.

[3] = tested on: heart rate; experiment: Effect on heart rate of the anesthetized cat after intravenous administration; format: in vivo; set-up: key to type of the reaction (heart rate): --: decrease in heart rate; conditions: i.v.; for ED10 (dose leading to a 10% alteration of the heart rate) / ED25 (dose leading to a 25% alteration of the heart rate): graphic extrapolation; for type of the reaction (heart rate): tested dosage range 250 - 4,000 γ/kg (A 12.5 - 16,000; W 125 - 4,000)
Procedure: The effect on the heart rate was tested on cats of both sexes (body weight between 2.3 and 3.5 kg) under chloralose-urethane anesthesia. The heart rate was continuously registered by means of a Grass-tachograph 7P4, controlled by the R-wave of the electrocardiogram. The test compound was injected through a catheter introduced into the vena femoralis.

[4] = Acute toxicity after i.v. administration in NMRI-mice (Litchfield and Wilcoxon); conditions: mouse, in vivo, iv, both sexes, deaths within 14 days, read-out: LD50 in the mouse after i.v. application
Procedure: The acute toxicity was determined with NMRI-mice of both sexes (body weight 20 gm) after intravenous administration of the compound. 0.1 ml of a 0.9% sodium chloride solution per 10gm of animal was used as the vehicle.

SMILES	ED50 [1] [mg/kg]	Average duration of effective action in the ED50 range [1] [min]	percent change in quantity of secretion (increase) ([2]; dose 0.5 γ/kg) [%]	percent change in quantity of secretion (increase) ([2]; dose 5 γ/kg) [%]	ED10 (dose leading to a 10% alteration of the heart rate) [3]	ED25 (dose leading to a 25% alteration of the heart rate) [3]	type of the reaction (heart rate) [3]	LD50 at 336 h [4] [mg/kg]
CCN(CC)CCCN1c2ccccc2N(C)C(=O)c2cccnc21.Cl [A, 11-(3'-diethylamino-n-propyl)-6,11-dihydro-6-methyl-5H-pyrido[2,3-b][1,5]benzodiazepin-5-one hydrochloride]	0.031	> 130	80	114	2,100 γ/kg	> 16,000 γ/kg	--	62.3
CN(C)CCN1c2ccccc2N(C)C(=O)c2cccnc21.Cl [B, 6,11-dihydro-11-(2'-dimethylamino-ethyl)-6-methyl-5H-pyrido[2,3-b][1,5]benzodiazepin-5-one hydrochloride]	0.148	> 110						25.8
CN(C)CCCN1c2ccccc2N(C)C(=O)c2cccnc21.Cl [C, 6,11-dihydro-11-(3'-dimethylamino-n-propyl)-6-methyl-5H-pyrido[2,3-b][1,5]benzodiazepin-5-one hydrochloride]	0.081	> 60			> 4,000 γ/kg		--	30.7
CNCCCN1c2ccccc2N(C)C(=O)c2cccnc21.Cl [D, 6,11-dihydro-6-methyl-11-(3'-methylamino-n-propyl)-5H-pyrido[2,3-b][1,5]benzodiazepin-5-one hydrochloride]	0.155	45						43.2
CCNCCCN1c2ccccc2N(C)C(=O)c2cccnc21.Cl [E, 11-(3'-ethylamino-n-propyl)-6,11-dihydro-6-methyl-5H-pyrido[2,3-b][1,5]benzodiazepin-5-one hydrochloride]	0.068	> 90			1,050 γ/kg	> 4,000 γ/kg	--	56.1
CC(C)NCCCN1c2ccccc2N(C)C(=O)c2cccnc21.Cl [F, 6,11-dihydro-11-(3'-isopropylamino-n-propyl)-6-methyl-5H-pyrido[2,3-b][1,5]benzodiazepin-5one hydrochloride]	0.172	> 110						43.5
CCN(CC)CCN1c2ccccc2N(C)C(=O)c2cccnc21.Cl [G, 11-(2'-diethylamino-ethyl)-6,11-dihydro-6-methyl-5H-pyrido[2,3-b][1,5]benzodiazepin-5-one hydrochloride]	0.044	50						27.1
CCCN(CCC)CCCN1c2ccccc2N(C)C(=O)c2cccnc21.Cl [H, 6,11-dihydro-11-(3'-di-n-propylamino-n-propyl)-6-methyl-5H-pyrido[2,3-b][1,5]benzodiazepin-5-one hydrochloride]	0.095	> 70						21.7
CC(C)N(CCN1c2ccccc2N(C)C(=O)c2cccnc21)C(C)C.Cl [I, 6,11-dihydro-11-(2'-diisopropylamino-ethyl)-6-methyl-5H-pyrido[2,3-b][1,5]benzodiazepin-5-one hydrochloride]	0.018	40			1,300 γ/kg	> 4,000 γ/kg	--	30.3
CN1C(=O)c2cccnc2N(CCCN2CCCC2)c2ccccc21.Cl [L, 6,11-dihydro-6-methyl-11-(3'-pyrrolidino-n-propyl)-5H-pyrido[2,3-b][1,5]benzodiazepin-5one hydrochloride]	0.043	120			1,900 γ/kg	3,950 γ/kg	--	22.7
CN1C(=O)c2cccnc2N(CCCN2CCCCC2)c2ccccc21.Cl [M, 6,11-dihydro-6-methyl-11-(3'-piperidino-n-propyl)-5H-pyrido[2,3-b][1,5]benzodiazepin-5-one hydrochloride]	0.063	> 60			1,400 γ/kg	> 4,000 γ/kg	--	10.6
CN1C(=O)c2cccnc2N(CCCN2CCCCCC2)c2ccccc21.Cl [N, 6,11-dihydro-11-(3'-hexamethyleneimino-n-propyl)-6-methyl-5H-pyrido[2,3-b][1,5]benzodiazepin-5-one hydrochloride]	0.064	> 50						12.7
CN1C(=O)c2cccnc2N(CCN2CCCC2)c2ccccc21.Cl [O, 6,11-dihydro-6-methyl-11-(2'-pyrrolidino-ethyl)-5H-pyrido[2,3-b][1,5]benzodiazepin-5-one hydrochloride]	0.097	> 30			> 4,000 γ/kg		--	11.4
CCN(CC)CCN1c2ccccc2C(=O)N(C)c2cccnc21.Cl [P, 11-(2'-diethylamino-ethyl)-5,11-dihydro-5-methyl-6H-pyrido[2,3-b][1,4]benzodiazepin-6-one hydrochloride]	0.21	110						
CC(C)N(CCN1c2ccccc2C(=O)N(C)c2cccnc21)C(C)C.Cl [Q, 5,11-dihydro-11-(2'-diisopropylamino-ethyl)-5-methyl-6H-pyrido[2,3-b][1,4]benzodiazepin-6-one hydrochloride]	0.053	> 50						27
CN(C)CCCN1c2ccccc2C(=O)N(C)c2cccnc21 [R, 5,11-dihydro-11-(3'-dimethylamino-n-propyl)-5-methyl-6H-pyrido[2,3-b][1,4]benzodiazepin-6-one]	0.19	> 50						
CCN(CC)CCCN1c2ccccc2C(=O)N(C)c2cccnc21.Cl [S, 5,11-dihydro-11-(3'-diethylamino-n-propyl)-5-methyl-6H-pyrido[2,3-b][1,4]benzodiazepin-6-one hydrochloride]	0.123	> 110						
CC(C)N(CCCN1c2ccccc2C(=O)N(C)c2cccnc21)C(C)C.Cl [T, 5,11-dihydro-11-(3'-diisopropylamino-n-propyl)-5-methyl-6H-pyrido[2,3-b][1,4]benzodiazepin-6-one hydrochloride]	0.0165	50			1,400 γ/kg	3,600 γ/kg	--	22.2
CN1C(=O)c2ccccc2N(CCCN2CCCC2)c2ncccc21.Cl [U, 5,11-dihydro-5-methyl-11-(3-pyrrolidino-n-propyl)-6H-pyrido[2,3-b][1,4]benzodiazepin-6-one hydrochloride]	0.105	> 50			2,300 γ/kg	> 4,000 γ/kg	--	22.9
CN1C(=O)c2ccccc2N(CCCN2CCCCC2)c2ncccc21.Cl [V, 5,11-dihydro-5-methyl-11-(3'-piperidino-n-propyl)-6H-pyrido[2,3-b][1,4]benzodiazepin-6-one hydrochloride]	0.18	> 110			1,100 γ/kg	> 4,000 γ/kg	--	13.4
CN1C(=O)c2ccccc2N(CCCN2CCCCCC2)c2ncccc21.Cl [W, 5,11-dihydro-11-(3'-hexamethyleneimino-n-propyl)-5-methyl-6H-pyrido[2,3-b][1,4]benzodiazepin-6-one hydrochloride]	0.215	> 40			1,200 γ/kg	> 4,000 γ/kg	--	13.4
